Experiment [1] relates to genotype A, "Long" strain RSV. As to the kind of experiment: RSV-A assay (CPE protection in Hep-2 cells, ATPlite readout). Type of experiment: cell-based, Human respiratory syncytial virus (HRSV). Particulars: human respiratory syncytial virus, genotype A “Long” strain RSV, MOI 0.1, CPE protection, read-out: Human RSV-A (“Long”). Put shortly:
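Hep-2, 8,000 cells/well, MOI 0.1 (PFU- or TCID50-based); 2-fold compound series, duplicates; 5 d incubation; ATPlite luminescence readout; EC50.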
(ATP-based viability assays read luminescence as a measure of living cells.)

For experiment [2], the system named is recombinant HMPV CAN97-83 containing eGFP (MPV-GFP1). The experiment can be described thus: HMPV antiviral assay Method-A (MPV-GFP1 eGFP fluorescence in Vero E6 cells). The class given is cell-based, Human metapneumovirus (HMPV). Particulars: human metapneumovirus, Vero C1008, 120 h, read-out: HMPV EC50. The method, then:
HMPV antiviral activity was evaluated using a recombinant version of HMPV CAN97-83 engineered to contain the coding sequence for enhanced green fluorescence protein (eGFP) in the 3′ end of the virus genome (MPV-GFP1, ViraTree). Vero E6 cells ([…]) were seeded at a density of 12,000 cells/100 μL/well into 96-well cell plates one day prior to the assay. On the day of screening, the cell culture medium was aspirated from the wells and cells were washed twice with serum-free Eagle's Modified Essential Medium (EMEM, ATCC #) containing 1% penicillin-streptomycin (Invitrogen) (SF-EMEM). Cell washes were performed by dispensing 100 μL SF-EMEM per well and immediately aspirating the wash medium from the well. Following the second wash step, serum-free OptiMEM (Invitrogen, Cat No.) (SF-OptiMEM) containing 0.5 μg/mL TPCK-Trypsin (VENDOR) and 1% penicillin-streptomycin was added to the cells at 50 μL/well. Compounds were added into the 96-well plates using a JANUS automated liquid handling system (VENDOR). Compounds were initially diluted 1:50 into an intermediate 96-well plate containing SF-OptiMEM prior to transfer to the assay plate (25 μL/well). Each of the test compounds were tested in duplicate wells at final concentrations starting from 8 μM or 2 μM using ½ stepwise dilutions for a total of 8 points. Virus infection was performed by preparing a working stock of MPV-GFP1 at a multiplicity of infection (MOI) equal to 0.05/25 μL and aliquoting 25 μL of virus inoculum to the compound and positive control wells. SF-OptiMEM was added (25 μL/well) to the appropriate wells to serve as a virus-free negative control for the assay. The final DMSO concentration of all wells is 0.5%. Plates were incubated at 32° C., 5% CO2 for 5 days.
After 5 days incubation, eGFP fluorescence intensity was measured at (X) […] wavelength using a Spectramax i3× plate reader (VENDOR). Percent viral inhibition was calculated using the following equation: y=[…]
Where XQ is the fluorescence intensity measured in a well containing recombinant MPV-GFP1-infected, compound-treated cells and XP is the average fluorescence intensity measured in the wells containing untreated cells infected with recombinant virus. EC50 values were then calculated by non-linear regression using a four parameter curve logistic equation. The curve fit model employed was XLFit Dose Response One Site Model 200: y=(A+(B/(1+((x/C)^D))))
Where A is the minimum y value, B is the maximum y value, C is the log EC50 value, and D is the slope factor. […] EC50 ranges are as follows: A<0.5 μM; B>0.5 μM.

On to `Cc1n[nH]c2ccc(C(=O)NC[C@](O)(c3cc4c(c(-c5ccc(F)cc5)n3)OC[C@]4(C)C(N)=O)C(F)(F)F)cc12` [Example 100], for which the EC50 in experiment [1] is less than 200 nM; in experiment [2], greater than 500 nM.

As for `COc1cc(C(=O)NC[C@](O)(c2cc3c(c(-c4ccc(F)c(Cl)c4)n2)OC[C@]3(C)C(N)=O)C(F)(F)F)cc2cc(C3CC3)nnc12` [Example 86], the EC50 in experiment [1] was less than 200 nM; in experiment [2], less than 500 nM.

For `COc1cc(C(=O)NC[C@](O)(c2cc3c(c(-c4ccc(F)cc4)n2)OC[C@]3(C)C(N)=O)C(F)(F)F)cc2cc(C)nnc12` [Example 9], the EC50 is less than 200 nM in experiment [1] and less than 500 nM in experiment [2].

On to `C[C@]1(C(N)=O)COc2c1cc([C@@](O)(CNC(=O)c1cc(F)c3nc(CF)cn3c1)C(F)(F)F)nc2-c1ccc(F)cc1` [Example 63], for which the results for the EC50 in experiment [1] and in experiment [2] were less than 200 nM and greater than 500 nM, respectively.

In the case of `C[C@]1(C(N)=O)COc2c1cc([C@@](O)(CNC(=O)c1ccc3[nH]c(=O)sc3c1)C(F)(F)F)nc2-c1ccc(F)cc1` [Example 129], the EC50 in experiment [1] was less than 200 nM; in experiment [2] it was greater than 500 nM.

Regarding `CC(C)[C@H](N)C(=O)Nc1nc2ccc(C(=O)NC[C@](O)(c3cc4c(c(-c5ccc(F)cc5)n3)OC[C@]4(C)C(N)=O)C(F)(F)F)cc2s1` [Example 155], the EC50 in experiment [1] was less than 200 nM; in experiment [2], greater than 500 nM.

For `COc1cc(C(=O)NC[C@](O)(c2cc3c(c(-c4ccc(F)cc4)n2)OC[C@@]3(C(N)=O)C2CC2)C(F)(F)F)cc2cn(C(F)F)nc12` [Example 267], the results for the EC50 in experiment [1] and in experiment [2] were less than 200 nM and less than 500 nM, respectively.

Turning to `Cc1cnc2c(NC(=O)NC3CC3)cc(C(=O)NC[C@](O)(c3cc4c(c(-c5ccc(F)c(Cl)c5)n3)OC[C@]4(C)C(N)=O)C(F)(F)F)cc2c1` [Example 219], the EC50 in experiment [1] was less than 200 nM; in experiment [2], less than 500 nM.

`Cc1cn2cc(C(=O)NC[C@](O)(c3cc4c(c(-c5ccc(F)cc5)n3)OC[C@]4(C)C(N)=O)C3CC3)ccc2n1` [Example 52]: the EC50 in experiment [1] is less than 200 nM; in experiment [2] it was less than 500 nM.

In the case of `C[C@]1(C(N)=O)COc2c1cc([C@@](O)(CNC(=O)c1cc(F)c3nc(C4CC4)cn3c1)C(F)(F)F)nc2-c1ccc(F)cc1` [Example 57], the EC50 in experiment [1] was less than 200 nM; in experiment [2], greater than 500 nM.

As to `COc1cc(C(=O)NC[C@](O)(c2cc3c(c(-c4ccc(F)cc4)n2)OC[C@]3(C)C(N)=O)C(F)(F)F)cc2c1OCO2` [Example 441], the results for the EC50 in experiment [1] and in experiment [2] were less than 200 nM and greater than 500 nM, respectively.

Turning to `C[C@]1(C(N)=O)COc2c1cc([C@@](O)(CNC(=O)c1ccc3nc(C4CC4)cn3c1)C1CC1)nc2-c1ccc(F)cc1` [Example 53], the EC50 was less than 200 nM in experiment [1] and less than 500 nM in experiment [2].

With `[2H]C([2H])([2H])c1cc2cc(C(=O)NC[C@](O)(c3cc4c(c(-c5ccc(F)cc5)n3)OC[C@]4(C)C(N)=O)C(F)(F)F)cc(OC)c2nc1C` [Example 143], the EC50 in experiment [1] is less than 200 nM; in experiment [2], less than 500 nM.

Take `COc1cc(C(=O)NC[C@](O)(c2cc3c(c(-c4ccc(F)cc4)n2)OC[C@]3(C)C(N)=O)C(F)(F)F)cc2cn(C(F)F)nc12` [Example 40]: the EC50 in experiment [1] is less than 200 nM; in experiment [2], less than 500 nM.

`COc1cc(C(=O)NC[C@](O)(c2cc3c(c(-c4ccc(F)cc4)n2)OC[C@]3(C)C(N)=O)C(F)(F)F)cn2cc(C(F)(F)F)nc12` [Example 49]: the EC50 in experiment [1] is less than 200 nM; in experiment [2], greater than 500 nM.

Take `COc1cc(C(=O)NC[C@](O)(c2cc3c(c(-c4ccc(F)cc4)n2)OC[C@]3(C)C(N)=O)C(F)(F)F)cn2cc(CF)nc12` [Example 62]: the EC50 in experiment [1] was less than 200 nM; in experiment [2], greater than 500 nM.

With `CCc1nc2c(OC)cc(C(=O)NC[C@](O)(c3cc4c(c(-c5ccc(F)cc5)n3)OC[C@]4(C)C(N)=O)C(F)(F)F)cc2s1` [Example 16], the EC50 in experiment [1] is less than 200 nM; in experiment [2] it was less than 500 nM.

For the molecule `COc1cc(C(=O)NC[C@](O)(c2cc3c(c(-c4ccc(F)cc4)n2)OC[C@]3(C)C(N)=O)C(F)(F)F)ccc1OC[C@@H](C)OP(=O)(O)O` [Example 149], the EC50 in experiment [1] is less than 200 nM; in experiment [2] it was greater than 500 nM.

In the case of `C[C@]1(C(N)=O)COc2c1cc([C@@](O)(CNC(=O)c1cc(NC(N)=O)c3ncc(Cl)cc3c1)C(F)(F)F)nc2-c1ccc(F)cc1` [Example 224], the EC50 is less than 200 nM in experiment [1] and greater than 500 nM in experiment [2].

With `COc1cc(C(=O)NC[C@](O)(c2cc3c(c(-c4ccc(F)cc4)n2)OC[C@]3(C)C(N)=O)C(F)(F)F)ccc1OC[C@H](O)C(F)(F)F` [Example 132], the EC50 is less than 200 nM in experiment [1] and greater than 500 nM in experiment [2].

Consider `C[C@]1(C(N)=O)COc2c1cc([C@@](O)(CNC(=O)c1cc(Cl)c3nn(C4CC4)cc3c1)C(F)(F)F)nc2-c1ccc(F)c(Cl)c1` [Example 85], for which the EC50 in experiment [1] is less than 200 nM; in experiment [2], less than 500 nM.

Turning to `COc1cc(C(=O)NC[C@](O)(c2cc3c(c(-c4ccc(F)c(Cl)c4)n2)OC[C@]3(C)C(N)=O)C(F)(F)F)cc2cn(C3CC3)nc12` [Example 28], the EC50 was less than 200 nM in experiment [1] and less than 500 nM in experiment [2].

Turning to `COc1cc(C(=O)NC[C@](O)(c2cc3c(c(-c4ccc(F)cc4)n2)OC[C@]3(C)C(N)=O)C(F)(F)F)cc2cn(C3CCC3)nc12` [Example 323], the EC50 in experiment [1] is less than 200 nM; in experiment [2] it was greater than 500 nM.

In the case of `C[C@]1(C(N)=O)COc2c1cc([C@@](O)(CNC(=O)c1cc(F)c3nn(C(F)F)cc3c1)C(F)(F)F)nc2-c1ccc(F)cc1` [Example 43], the EC50 is less than 200 nM in experiment [1] and less than 500 nM in experiment [2].

In the case of `COc1cc(C(=O)NC[C@](O)(c2cc3c(c(-c4ccc(F)cc4)n2)OC[C@@]3(C(N)=O)C2CC2)C(F)(F)F)cc2cccnc12` [Example 268], the figures for the EC50 in experiment [1] and in experiment [2] were less than 200 nM and greater than 500 nM, respectively.

`COc1cc(C(=O)NC[C@](O)(c2cc3c(c(-c4ccc(F)cc4)n2)OC[C@]3(C)C(N)=O)C(F)(F)F)cc2cc(C3CC3)nn12` [Example 92]: the EC50 is less than 200 nM in experiment [1] and less than 500 nM in experiment [2].

Consider `C[C@]1(C(N)=O)COc2c1cc([C@@](O)(CNC(=O)c1cc(OC3CC3)c3nc(C4CC4)sc3c1)C(F)(F)F)nc2-c1ccc(F)cc1` [Example 96], for which the EC50 in experiment [1] was less than 200 nM; in experiment [2], less than 500 nM.

As for `C[C@]1(C(N)=O)COc2c1cc([C@@](O)(CNC(=O)c1ccc3nc(C4CC4)cn3c1)C(F)(F)F)nc2-c1ccc(F)c(Cl)c1` [Example 60], the EC50 in experiment [1] was less than 200 nM; in experiment [2], less than 500 nM.

On to `CCc1nc2ccc(C(=O)NC[C@](O)(c3cc4c(c(-c5ccc(F)cc5)n3)OC[C@]4(C)C(N)=O)C(F)(F)F)cc2s1` [Example 11], for which the EC50 in experiment [1] is less than 200 nM; in experiment [2], greater than 500 nM.

Turning to `Cc1cn2cc(C(=O)NC[C@](O)(c3cc4c(c(-c5ccc(F)cc5)n3)OC[C@]4(C)C(N)=O)C(F)(F)F)cc(Cl)c2n1` [Example 55], the EC50 was less than 200 nM in experiment [1] and less than 500 nM in experiment [2].

As to `COc1cc(C(=O)NC[C@](O)(c2cc3c(c(-c4ccc(F)cc4)n2)OC[C@]3(C)C(N)=O)C(F)(F)F)cc2nc(C3CC3)[nH]c12` [Example 95], the EC50 was less than 200 nM in experiment [1] and greater than 500 nM in experiment [2].

`C[C@]1(C(N)=O)COc2c1cc([C@@](O)(CNC(=O)c1cc(Cl)c3[nH]ncc3c1)C(F)(F)F)nc2-c1ccc(F)cc1` [Example 103]: the values for the EC50 in experiment [1] and in experiment [2] were less than 200 nM and less than 500 nM, respectively.

Take `COc1cc(C(=O)NC[C@](O)(c2cc3c(c(-c4ccc(F)cc4)n2)OC[C@]3(C)C(N)=O)C(F)(F)F)ccc1OC[C@H](O)C(F)F` [Example 136]: the EC50 was less than 200 nM in experiment [1] and greater than 500 nM in experiment [2].

`C[C@]1(C(N)=O)COc2c1cc([C@@](O)(CNC(=O)c1ccc3nc(CF)sc3c1)C(F)(F)F)nc2-c1ccc(F)cc1` [Example 142]: the values for the EC50 in experiment [1] and in experiment [2] were less than 200 nM and greater than 500 nM, respectively.

Consider `C[C@]1(C(N)=O)COc2c1cc([C@@](O)(CNC(=O)c1cc(OC3CC3)c3nn(C4CC4)cc3c1)C(F)(F)F)nc2-c1ccc(F)c(Cl)c1` [Example 30], for which the EC50 in experiment [1] was less than 200 nM; in experiment [2], less than 500 nM.

The record behind these values is patent US12612412B2, “Antiviral heterocyclic compounds” (Enanta Pharmaceuticals, Inc., priority 2021, dated 2026).
